# Assay results: patent US20260317344A1, “EGFR INHIBITORS FOR TREATING DISEASE” (BLOSSOMHILL THERAPEUTICS, INC., priority 2023, published 2026)
# Key:
# [1] = test system: NCI-H1975 cells; experiment: 5-Day CellTiter Glo (CTG) cell proliferation assay, NCI-H1975; type: cell-based; conditions: Homo sapiens; NCI-H1975 cells (L858R/T790M EGFR), 5-day CTG proliferation, 120 hours; read-out: H1975 IC50
# Summary of the method: (§1)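 Luminescent ATP signal (CellTiter-Glo 2.0) after 120 hours of compound exposure gave IC50 values. PC-9 and HCC827 harbour EGFR d746-750; NCI-H1975 harbours L858R/T790M.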
# [2] = test system: HCC827 cells; experiment: 5-Day CellTiter Glo (CTG) cell proliferation assay, HCC827; type: cell-based; conditions: Homo sapiens; HCC827 cells (d746-750 EGFR), 5-day CTG proliferation, 120 hours; read-out: HCC827 IC50
# Summary of the method: as §1
# [3] = test system: BaF3 cells with engineered EGFR L858R/T790M/C797S; experiment: 3-Day CellTiter Glo (CTG) cell proliferation assay, BaF3 EGFR L858R/T790M/C797S; type: cell-based; conditions: Mus musculus, 3-day CTG proliferation, 72 hours
# Summary of the method: (§2)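 Viability after 72 h compound exposure (9 concentrations, 37° C, 5% CO2) was measured as ATP luminescence with CellTiter-Glo 2.0 in EGFR-mutant-engineered BaF3 cells plated at one thousand cells per well. IC50 values obtained by curve fitting.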
# [4] = test system: PC-9 cells; experiment: 5-Day CellTiter Glo (CTG) cell proliferation assay, PC-9; type: cell-based; conditions: Homo sapiens; PC-9 cells (d746-750 EGFR), 5-day CTG proliferation, 120 hours; read-out: PC-9 IC50
# Summary of the method: as §1
# [5] = biological target: EGFR (D746-750/C797S) (Homo sapiens, UniProt P00533, C797S/DEL746-750); experiment: HotSpot radiometric kinase assay, inhibition of EGFR 746-750/C797S mutant; type: biochemical; conditions: 33P ATP, room temperature, 120 m
# Summary of the method: (§3)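 Kinase/substrate pairs in 20 mM HEPES pH 7.5, 10 mM MgCl2, 1 mM EGTA, 0.02% Brij35, 0.02 mg/ml BSA, 0.1 mM Na3VO4, 2 mM DTT, 1% DMSO, preincubated ~20 min with compound. Reaction started with ATP/33P-ATP ([…]), run 120 min at room temperature; phosphorylation read by P81 filter binding, IC50 from curve fits.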
# [6] = biological target: T1, pEGFR, PC-9 cells (d746-750 EGFR) (Homo sapiens, UniProt P00533, DEL746-750); experiment: Cellular EGFR phosphorylation assay (LANCE Ultra TR-FRET) in PC-9 cells; type: cell-based; conditions: 4 hours at 37° C., read-out: PC-9 pEGFR IC50
# T1 construct: pEGFR (Tyr1068) TR-FRET
# T1 sequence (P00533 with tags, fused parts or gaps DEL746-750): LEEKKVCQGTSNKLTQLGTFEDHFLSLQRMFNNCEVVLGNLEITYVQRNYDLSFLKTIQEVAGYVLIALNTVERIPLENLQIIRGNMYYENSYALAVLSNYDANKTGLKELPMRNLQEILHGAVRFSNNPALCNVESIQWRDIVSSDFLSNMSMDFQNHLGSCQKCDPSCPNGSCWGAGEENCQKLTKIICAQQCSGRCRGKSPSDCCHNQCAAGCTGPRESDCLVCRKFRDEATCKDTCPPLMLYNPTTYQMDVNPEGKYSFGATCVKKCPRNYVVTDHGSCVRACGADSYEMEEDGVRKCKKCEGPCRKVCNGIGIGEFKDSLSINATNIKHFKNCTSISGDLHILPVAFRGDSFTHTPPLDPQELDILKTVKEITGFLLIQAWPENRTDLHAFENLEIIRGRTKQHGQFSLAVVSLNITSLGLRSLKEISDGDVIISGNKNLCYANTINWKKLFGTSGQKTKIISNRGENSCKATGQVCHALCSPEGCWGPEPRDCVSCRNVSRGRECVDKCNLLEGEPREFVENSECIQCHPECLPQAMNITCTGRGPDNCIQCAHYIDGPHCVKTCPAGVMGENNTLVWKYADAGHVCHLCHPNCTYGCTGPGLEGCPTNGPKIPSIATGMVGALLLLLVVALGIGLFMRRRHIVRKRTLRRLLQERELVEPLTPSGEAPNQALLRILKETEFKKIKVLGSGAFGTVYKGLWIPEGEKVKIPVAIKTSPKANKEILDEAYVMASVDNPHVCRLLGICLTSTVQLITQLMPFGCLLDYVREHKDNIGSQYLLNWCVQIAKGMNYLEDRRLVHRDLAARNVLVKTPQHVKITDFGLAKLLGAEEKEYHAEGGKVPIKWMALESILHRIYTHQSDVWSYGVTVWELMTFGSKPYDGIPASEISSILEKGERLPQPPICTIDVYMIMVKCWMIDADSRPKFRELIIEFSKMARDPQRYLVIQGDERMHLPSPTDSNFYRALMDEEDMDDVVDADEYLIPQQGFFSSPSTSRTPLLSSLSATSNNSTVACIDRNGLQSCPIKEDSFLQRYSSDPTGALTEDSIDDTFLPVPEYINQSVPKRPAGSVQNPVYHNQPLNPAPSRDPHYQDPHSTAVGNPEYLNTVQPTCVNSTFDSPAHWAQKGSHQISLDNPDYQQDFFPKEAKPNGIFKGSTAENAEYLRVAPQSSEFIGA
# Summary of the method: (§4)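 pEGFR Tyr1068 TR-FRET readout, lysates after 4 h compound exposure (37 °C, 5% CO2); 9-dose 3-fold series. A431 only: EGF 40 ng/mL for last 10 min. IC50 from curve fit.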
# [7] = biological target: T2, pEGFR, A431 cells (wildtype EGFR) (Homo sapiens, UniProt P00533); experiment: Cellular EGFR phosphorylation assay (LANCE Ultra TR-FRET) in A431 cells; type: cell-based; conditions: 4 hours at 37° C., 40 ng/mL EGF for the final 10 minutes, read-out: A431 pEGFR IC50
# T2 construct: pEGFR (Tyr1068) TR-FRET
# T2 sequence (P00533 25-1210): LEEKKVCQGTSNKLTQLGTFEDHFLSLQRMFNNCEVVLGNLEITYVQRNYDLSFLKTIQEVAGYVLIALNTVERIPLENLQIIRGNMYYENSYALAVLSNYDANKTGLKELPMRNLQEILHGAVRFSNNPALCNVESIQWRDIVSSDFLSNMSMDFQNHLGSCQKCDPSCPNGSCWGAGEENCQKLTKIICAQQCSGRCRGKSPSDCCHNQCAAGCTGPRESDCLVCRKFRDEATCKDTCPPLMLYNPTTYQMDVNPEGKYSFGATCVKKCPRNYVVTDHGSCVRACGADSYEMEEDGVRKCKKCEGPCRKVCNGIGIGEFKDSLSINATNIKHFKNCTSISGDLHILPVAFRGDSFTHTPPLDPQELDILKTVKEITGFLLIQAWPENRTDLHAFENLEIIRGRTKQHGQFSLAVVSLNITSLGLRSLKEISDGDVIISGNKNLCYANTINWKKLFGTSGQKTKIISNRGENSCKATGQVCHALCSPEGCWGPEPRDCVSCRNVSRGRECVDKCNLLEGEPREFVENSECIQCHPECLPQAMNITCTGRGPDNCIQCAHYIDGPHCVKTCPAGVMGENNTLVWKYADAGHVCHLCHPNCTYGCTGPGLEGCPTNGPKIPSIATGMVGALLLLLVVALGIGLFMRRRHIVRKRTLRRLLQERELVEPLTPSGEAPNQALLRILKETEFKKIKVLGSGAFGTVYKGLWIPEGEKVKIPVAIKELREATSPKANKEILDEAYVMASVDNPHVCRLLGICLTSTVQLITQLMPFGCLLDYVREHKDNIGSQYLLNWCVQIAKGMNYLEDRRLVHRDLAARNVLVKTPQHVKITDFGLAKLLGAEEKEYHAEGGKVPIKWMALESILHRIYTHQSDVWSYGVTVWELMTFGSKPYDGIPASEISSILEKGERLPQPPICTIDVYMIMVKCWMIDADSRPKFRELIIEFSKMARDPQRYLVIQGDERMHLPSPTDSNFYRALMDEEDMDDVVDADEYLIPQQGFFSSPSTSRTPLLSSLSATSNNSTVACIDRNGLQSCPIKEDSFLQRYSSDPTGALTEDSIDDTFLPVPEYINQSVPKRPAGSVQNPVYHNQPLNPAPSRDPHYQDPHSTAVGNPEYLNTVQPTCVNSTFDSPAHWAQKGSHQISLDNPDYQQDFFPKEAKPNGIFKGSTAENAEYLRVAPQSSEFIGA
# Summary of the method: as §4
# [8] = test system: BaF3 cells with engineered EGFR L858R/C797S; experiment: 3-Day CellTiter Glo (CTG) cell proliferation assay, BaF3 EGFR L858R/C797S; type: cell-based; conditions: Mus musculus, 3-day CTG proliferation, 72 hours
# Summary of the method: as §2
# [9] = biological target: EGFR (D746-750) (Homo sapiens, UniProt P00533, DEL746-750); experiment: HotSpot radiometric kinase assay, inhibition of EGFR 746-750 mutant; type: biochemical; conditions: 33P ATP, room temperature, 120 m
# EGFR (D746-750), sequence (P00533 with tags, fused parts or gaps DEL746-750): as the sequence (P00533 with tags, fused parts or gaps DEL746-750) above
# Summary of the method: as §3
# [10] = test system: BaF3 cells with engineered EGFR d746-750/T790M; experiment: 3-Day CellTiter Glo (CTG) cell proliferation assay, BaF3 EGFR d746-750/T790M; type: cell-based; conditions: Mus musculus; BaF3 EGFR d746-750/T790M cells, 3-day CTG proliferation, 72 hours
# Summary of the method: as §2
# [11] = biological target: T3, pEGFR, NCI-H1975 cells (L858R/T790M EGFR) (Homo sapiens, UniProt P00533, L858R/T790M); experiment: Cellular EGFR phosphorylation assay (LANCE Ultra TR-FRET) in NCI-H1975 cells; type: cell-based; conditions: 4 hours at 37° C., read-out: H1975 pEGFR IC50
# T3 construct: pEGFR (Tyr1068) TR-FRET
# T3 sequence (P00533 25-1210 T790M/L858R): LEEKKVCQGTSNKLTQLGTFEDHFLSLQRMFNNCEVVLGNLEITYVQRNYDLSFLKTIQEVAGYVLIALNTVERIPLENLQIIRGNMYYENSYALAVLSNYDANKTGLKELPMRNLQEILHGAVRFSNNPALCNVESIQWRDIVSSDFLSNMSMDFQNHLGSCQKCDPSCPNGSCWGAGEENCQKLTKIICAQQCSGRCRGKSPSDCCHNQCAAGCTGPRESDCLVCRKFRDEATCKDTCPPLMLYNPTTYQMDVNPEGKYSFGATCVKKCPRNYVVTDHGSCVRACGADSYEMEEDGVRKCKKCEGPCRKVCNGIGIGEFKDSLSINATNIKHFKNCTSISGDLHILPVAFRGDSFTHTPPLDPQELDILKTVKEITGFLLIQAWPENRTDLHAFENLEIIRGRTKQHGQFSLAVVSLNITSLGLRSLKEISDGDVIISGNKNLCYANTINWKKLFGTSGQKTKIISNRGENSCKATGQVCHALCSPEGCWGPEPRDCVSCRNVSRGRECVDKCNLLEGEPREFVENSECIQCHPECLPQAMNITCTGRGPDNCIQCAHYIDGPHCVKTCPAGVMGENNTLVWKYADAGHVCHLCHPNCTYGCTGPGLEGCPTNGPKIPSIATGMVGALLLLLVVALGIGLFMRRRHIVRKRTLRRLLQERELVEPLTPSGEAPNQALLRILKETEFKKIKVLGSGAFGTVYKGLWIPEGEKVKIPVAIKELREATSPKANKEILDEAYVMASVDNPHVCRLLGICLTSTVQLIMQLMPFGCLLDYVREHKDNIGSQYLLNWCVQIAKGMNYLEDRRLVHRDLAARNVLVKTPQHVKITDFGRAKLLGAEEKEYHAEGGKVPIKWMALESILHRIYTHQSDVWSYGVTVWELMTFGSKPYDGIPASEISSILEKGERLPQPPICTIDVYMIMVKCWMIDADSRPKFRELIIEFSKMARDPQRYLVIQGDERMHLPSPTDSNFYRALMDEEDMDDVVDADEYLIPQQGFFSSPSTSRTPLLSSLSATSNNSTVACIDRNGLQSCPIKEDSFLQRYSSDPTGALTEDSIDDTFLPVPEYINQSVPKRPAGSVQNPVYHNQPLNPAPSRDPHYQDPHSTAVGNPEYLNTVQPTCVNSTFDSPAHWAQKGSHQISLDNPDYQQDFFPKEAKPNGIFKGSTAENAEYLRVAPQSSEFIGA
# Summary of the method: as §4
# [12] = biological target: EGFR (D770_N771insNPG) (Homo sapiens, UniProt P00533, INS770NPG); experiment: HotSpot radiometric kinase assay, inhibition of EGFR (D770_N771insNPG) mutant; type: biochemical; conditions: 33P ATP, room temperature, 120 m
# Summary of the method: as §3
# [13] = biological target: EGFR (L858R/T790M/C797S) (Homo sapiens, UniProt P00533, C797S/L858R/T790M); experiment: HotSpot radiometric kinase assay, inhibition of EGFR L858R/T790M/C797S mutant; type: biochemical; conditions: 33P ATP, room temperature, 120 m
# Summary of the method: as §3
IC50 [1] [nM],IC50 [2] [nM],IC50 [3] [nM],IC50 [4] [nM],IC50 [5] [nM],IC50 [6] [nM],IC50 [7] [nM],IC50 [8] [nM],IC50 [9] [nM],IC50 [10] [nM],IC50 [11] [nM],IC50 [12] [nM],IC50 [13] [nM],SMILES
15.7,1.1,1.57,2.94,1.12,2.57,21,0.18,0.37,4.31,8.74,0.45,0.67,"Cc1nn(C)c2c1-c1cc3c(n[nH]c3cn1)/C=C/c1c(OCC#N)nn([C@@H](C)CO)c1CN(C)C[C@H](C)O2 [Ex. 53, {[(10S,17E)-14-[(2S)-1-hydroxypropan-2-yl]-6,8,10,12-tetramethyl-2,10,11,12,13,14-hexahydro-8H-5,3-(azenometheno)tripyrazolo[3,4-f:3′,4′-j:4″,3″-n][1,4]oxazacyclopentadecin-16-yl]oxy}acetonitrile]"
27.1,7.9,4.01,48.8,0.54,18.8,47.5,6.5,0.24,22.1,3.11,1.9,0.25,"CCOc1nn(CCO)c2c1/C=C/c1n[nH]c3c(C)nc(cc13)-c1cnn(C)c1O[C@H](C)CN(C)C2 [Ex. 38, 2-[(10R,17E)-16-ethoxy-8,10,12,20-tetramethyl-2,8,10,11,12,13-hexahydro-14H-5,3-(azenometheno)tripyrazolo[3,4-f:3′,4′-j:4″,3″-n][1,4]oxazacyclopentadecin-14-yl]ethan-1-ol]"
0.92,0.28,0.61,0.32,1.11,0.82,8.41,0.05,0.45,0.48,1.26,0.67,0.98,"CCOc1nn([C@@H](C)CO)c2c1/C=C/c1n[nH]c3cnc(cc13)-c1c(C)nn(C)c1O[C@@H](C)[C@H]1CCCN1C2 [Ex. 56, (2S)-2-[(8aR,9S,19E)-1-ethoxy-9,11,13-trimethyl-7,8,8a,9,11,17-hexahydro-6H-14,16-(azenometheno)tripyrazolo[3,4-f:3′,4′-j:4″,3″-n]pyrrolo[2,1-c][1,4]oxazacyclopentadecin-3(4H)-yl]propan-1-ol]"
68.2,8.59,1.77,21.9,1.38,11.3,26.1,0.69,0.8,61.8,10.5,4.83,0.86,"Cc1nn([C@@H](C)CO)c2c1/C=C/c1n[nH]c3c(C)nc(cc13)-c1c(C)nn(C)c1O[C@@H](C)CN(C)C2 [Ex. 57, (2S)-2-[(10S,17E)-6,8,10,12,16,20-hexamethyl-2,8,10,11,12,13-hexahydro-14H-5,3-(azenometheno)tripyrazolo[3,4-f:3′,4′-j:4″,3″-n][1,4]oxazacyclopentadecin-14-yl]propan-1-ol]"
